Test results as given in ChEMBL document CHEMBL4828735, “Discovery of N-((3S,4S)-4-(3,4-Difluorophenyl)piperidin-3-yl)-2-fluoro-4-(1-methyl-1H-pyrazol-5-yl)benzamide (Hu7691), a Potent and Selective Akt Inhibitor That Enables Decrease of Cutaneous Toxicity” (J Med Chem, 2021).
The source made the active and inactive calls. The calls are words filed in the database; no cut-off is given here.

What was measured:
[1] = target: RAC-alpha serine/threonine-protein kinase (Homo sapiens, UniProt P31749); assay: Inhibition of N-terminal GST-tagged human AKT1 (104 to 408 residues) expressed in baculovirus infected Sf21 cells incubated for 1 hr in presence of ATP by mobility shift assay
[2] = tested on: 786-0; assay: Antiproliferative activity against human 786-0 cells assessed as inhibition of cell growth incubated for 72 hrs by SRB assay; assay type: functional, cell-based; conditions: 786-0, 72 h
[3] = target: cGMP-dependent protein kinase 2 (Homo sapiens) (UniProt Q13237); assay: Inhibition of PRKG2 (unknown origin) at 0.5 uM
[4] = target: Protein kinase C theta type (Homo sapiens, UniProt Q04759); assay: Inhibition of PKCtheta (unknown origin)
[5] = target: Ribosomal protein S6 kinase alpha-5 (Homo sapiens, UniProt O75582); assay: Inhibition of MSK1 (unknown origin)
[6] = target: Testis-specific serine/threonine-protein kinase 1 (Homo sapiens, UniProt Q9BXA7); assay: Inhibition of TSSK1 (unknown origin)
[7] = target: ALK tyrosine kinase receptor (Homo sapiens, UniProt Q9UM73); assay: Inhibition of ALK (unknown origin)
[8] = target: Cyclin-dependent kinase 2 (Homo sapiens, UniProt P24941); assay: Inhibition of CDK2 (unknown origin)
[9] = target: Aurora kinase A (Homo sapiens, UniProt O14965); assay: Inhibition of Aurora A (unknown origin)
[10] = tested on: U-87 MG; assay: Antiproliferative activity against human U-87MG cells assessed as inhibition of cell growth incubated for 72 hrs by SRB method; assay type: functional, cell-based, U-87MG ATCC
[11] = tested on: HepG2; assay: Antiproliferative activity against human HepG2 cells assessed as inhibition of cell growth incubated for 72 hrs by SRB method; assay type: functional, cell-based; conditions: HepG2, 72 h
[12] = tested on: HT-29; assay: Antiproliferative activity against human HT-29 cells assessed as inhibition of cell growth incubated for 72 hrs by SRB method; assay type: functional, cell-based; conditions: HT-29, 72 h
[13] = tested on: 769-P; assay: Antiproliferative activity against human 769-P cells assessed as inhibition of cell growth incubated for 72 hrs by SRB method; assay type: functional, cell-based
[14] = tested on: OS-RC-2; assay: Antiproliferative activity against human OS-RC-2 cells assessed as inhibition of cell growth incubated for 72 hrs by SRB method; assay type: functional, cell-based; conditions: OS-RC-2, 72 h
[15] = tested on: MDA-MB-231; assay: Antiproliferative activity against human MDA-MB-231 cells assessed as inhibition of cell growth incubated for 72 hrs by SRB method; assay type: functional, cell-based; conditions: MDA-MB-231, 72 h
[16] = tested on: LNCaP; assay: Antiproliferative activity against human LNCaP cells assessed as inhibition of cell growth incubated for 72 hrs by SRB method; assay type: functional, cell-based
[17] = tested on: OVCAR-8; assay: Antiproliferative activity against human OVCAR-8 cells assessed as inhibition of cell growth incubated for 72 hrs by SRB method; assay type: functional, cell-based; conditions: OVCAR-8, 72 h
[18] = tested on: L02; assay: Antiproliferative activity against human HL7702 cells assessed as inhibition of cell growth incubated for 72 hrs by SRB method; assay type: cell-based; conditions: L02, 72 h
[19] = target: Cytochrome P450 2C9 (Homo sapiens, UniProt P11712); assay: Inhibition of CYP2C9 (unknown origin); assay type: ADME
[20] = Microsomal stability in mouse liver microsomes assessed as half life at 50 uM preincubated for 5 mins with NADPH followed by compound addition and measured upto 60 mins by LC-MS/MS analysis; assay type: ADME, Microsome
[21] = Microsomal stability in monkey liver microsomes assessed as intrinsic clearance at 50 uM preincubated for 5 mins with NADPH followed by compound addition and measured upto 60 mins by LC-MS/MS analysis; assay type: ADME, Macaca mulatta, Microsome; conditions: rhesus monkey, read-out: CLH
[22] = Microsomal stability in dog liver microsomes assessed as intrinsic clearance at 50 uM preincubated for 5 mins with NADPH followed by compound addition and measured upto 60 mins by LC-MS/MS analysis; assay type: ADME, Canis lupus familiaris, Microsome; conditions: read-out: CLH
[23] = Microsomal stability in rat liver microsomes assessed as intrinsic clearance at 50 uM preincubated for 5 mins with NADPH followed by compound addition and measured upto 60 mins by LC-MS/MS analysis; assay type: ADME, Microsome; conditions: read-out: CLH
[24] = Microsomal stability in mouse liver microsomes assessed as intrinsic clearance at 50 uM preincubated for 5 mins with NADPH followed by compound addition and measured upto 60 mins by LC-MS/MS analysis; assay type: ADME, Microsome; conditions: read-out: CLH
[25] = Tmax in Sprague-Dawley rat at 15 mg/kg, ig measured upto 72 hrs by LC-MS/MS analysis; assay type: ADME, organism-based; conditions: in vivo, po
[26] = Tmax in Sprague-Dawley rat at 2 mg/kg, iv measured upto 24 hrs by LC-MS/MS analysis; assay type: ADME, organism-based; conditions: in vivo
[27] = Half life in Sprague-Dawley rat at 2 mg/kg, iv measured upto 24 hrs by LC-MS/MS analysis; assay type: ADME, organism-based; conditions: in vivo
[28] = Half life in Beagle dog at 20 mg/kg, ig measured upto 96 hrs by LC-MS/MS analysis; assay type: ADME, organism-based, Canis lupus familiaris; conditions: in vivo, po
[29] = Cmax in Sprague-Dawley rat at 15 mg/kg, ig measured upto 72 hrs by LC-MS/MS analysis; assay type: ADME, organism-based; parameters: route […], dose 15 mg/kg, time <=72; conditions: in vivo, po
[30] = AUC(0 to infinity) in Sprague-Dawley rat at 2 mg/kg, iv measured upto 24 hrs by LC-MS/MS analysis; assay type: ADME, organism-based; parameters: route intravenous, dose 2 mg/kg, time <=24; conditions: in vivo
[31] = Drug metabolism in po dosed Sprague-Dawley rat urine assessed as M2 metabolite formation measured upto 72 hrs by UPLC-TOF-MS/MS analysis; assay type: ADME, organism-based; conditions: in vivo
[32] = Drug metabolism in po dosed Sprague-Dawley rat urine assessed as M4 metabolite formation measured upto 72 hrs by UPLC-TOF-MS/MS analysis; assay type: ADME, organism-based; conditions: in vivo
[33] = Drug metabolism in po dosed Sprague-Dawley rat feces assessed as M2 metabolite formation measured upto 24 hrs by UPLC-TOF-MS/MS analysis; assay type: ADME, organism-based; conditions: in vivo
[34] = Drug metabolism in po dosed Sprague-Dawley rat bile assessed as M2 metabolite formation measured upto 24 hrs by UPLC-TOF-MS/MS analysis; assay type: ADME, organism-based; conditions: in vivo
[35] = Drug metabolism in po dosed Sprague-Dawley rat bile assessed as M5 metabolite formation measured upto 24 hrs by UPLC-TOF-MS/MS analysis; assay type: ADME, organism-based; conditions: in vivo
[36] = Toxicity in Beagle dog assessed as thymic atrophy at 100 mg/kg; assay type: organism-based, Canis lupus familiaris; conditions: in vivo
[37] = Toxicity in Sprague-Dawley rat assessed as appearance of scab on back skin at 25 to 75 mg/kg administered daily for 4 weeks; assay type: organism-based; conditions: in vivo, 672 h, dose 25-75 mg/kg
[38] = Toxicity in Sprague-Dawley rat assessed as effect on uterus at 25 to 75 mg/kg administered daily for 4 weeks by histopathological analysis; assay type: organism-based; conditions: in vivo, 672 h, dose 25-75 mg/kg
[39] = Toxicity in Sprague-Dawley rat assessed as effect on thyroid at 25 to 75 mg/kg administered daily for 4 weeks by histopathological analysis; assay type: organism-based; conditions: in vivo, 672 h, dose 25-75 mg/kg
[40] = tested on: KHOS/NP; assay: Antitumor activity against human KHOS cells xenografted in dosed BALB/c nude mouse assessed as tumor growth inhibition at 12.5 to 50 mg/kg, ig administered once daily for 22 days; assay type: functional; conditions: dose 12.5-50 mg/kg, time 22 day
[41] = Toxicity in BALB/c nude mouse xenografted with human 786-0 cells assessed as change in body weight at 12.5 to 50 mg/kg, ig administered once daily for 22 days; assay type: organism-based; conditions: in vivo, po, 528 h, dose 12.5-50 mg/kg, time 22 day

cGMP-dependent protein kinase 2 (Homo sapiens), sequence (Q13237 whole entry): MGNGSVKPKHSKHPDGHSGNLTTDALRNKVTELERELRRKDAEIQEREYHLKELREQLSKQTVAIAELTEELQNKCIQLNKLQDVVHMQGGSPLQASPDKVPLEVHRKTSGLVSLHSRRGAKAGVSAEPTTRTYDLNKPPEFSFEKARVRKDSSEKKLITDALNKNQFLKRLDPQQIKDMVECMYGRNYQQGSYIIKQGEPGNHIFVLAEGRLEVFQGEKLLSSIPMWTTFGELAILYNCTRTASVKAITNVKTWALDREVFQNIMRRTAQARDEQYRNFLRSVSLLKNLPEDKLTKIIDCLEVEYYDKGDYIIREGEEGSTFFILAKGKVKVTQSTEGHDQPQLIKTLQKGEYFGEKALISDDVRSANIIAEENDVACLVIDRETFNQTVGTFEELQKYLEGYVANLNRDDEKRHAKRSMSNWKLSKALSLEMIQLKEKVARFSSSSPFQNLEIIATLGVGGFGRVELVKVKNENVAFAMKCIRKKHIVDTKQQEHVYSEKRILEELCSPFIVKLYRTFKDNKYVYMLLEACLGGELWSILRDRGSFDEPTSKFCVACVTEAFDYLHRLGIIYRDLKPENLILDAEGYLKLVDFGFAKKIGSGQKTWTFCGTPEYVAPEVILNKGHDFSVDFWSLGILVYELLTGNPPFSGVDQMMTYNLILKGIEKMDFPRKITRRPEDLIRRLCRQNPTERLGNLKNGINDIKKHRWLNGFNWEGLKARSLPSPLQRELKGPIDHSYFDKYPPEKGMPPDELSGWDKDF
Protein kinase C theta type, sequence (Q04759 whole entry): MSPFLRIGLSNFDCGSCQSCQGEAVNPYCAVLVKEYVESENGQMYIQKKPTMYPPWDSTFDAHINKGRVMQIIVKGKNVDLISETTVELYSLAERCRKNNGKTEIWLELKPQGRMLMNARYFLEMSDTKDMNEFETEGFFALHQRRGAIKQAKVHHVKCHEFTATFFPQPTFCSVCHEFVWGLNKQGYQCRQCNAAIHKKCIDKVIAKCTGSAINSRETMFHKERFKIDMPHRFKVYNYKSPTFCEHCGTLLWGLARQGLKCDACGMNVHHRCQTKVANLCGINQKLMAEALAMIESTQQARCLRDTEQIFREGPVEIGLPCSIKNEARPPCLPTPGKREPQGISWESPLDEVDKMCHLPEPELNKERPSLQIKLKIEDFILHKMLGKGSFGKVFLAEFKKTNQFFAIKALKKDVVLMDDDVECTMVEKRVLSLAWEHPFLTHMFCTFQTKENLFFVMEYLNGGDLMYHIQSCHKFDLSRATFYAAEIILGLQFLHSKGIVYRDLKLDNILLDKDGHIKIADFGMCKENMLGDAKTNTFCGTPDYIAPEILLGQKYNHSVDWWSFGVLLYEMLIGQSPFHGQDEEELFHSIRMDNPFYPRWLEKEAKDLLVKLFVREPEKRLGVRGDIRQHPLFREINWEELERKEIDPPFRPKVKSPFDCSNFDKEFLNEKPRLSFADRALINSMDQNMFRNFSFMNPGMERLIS
Testis-specific serine/threonine-protein kinase 1, sequence (Q9BXA7 whole entry): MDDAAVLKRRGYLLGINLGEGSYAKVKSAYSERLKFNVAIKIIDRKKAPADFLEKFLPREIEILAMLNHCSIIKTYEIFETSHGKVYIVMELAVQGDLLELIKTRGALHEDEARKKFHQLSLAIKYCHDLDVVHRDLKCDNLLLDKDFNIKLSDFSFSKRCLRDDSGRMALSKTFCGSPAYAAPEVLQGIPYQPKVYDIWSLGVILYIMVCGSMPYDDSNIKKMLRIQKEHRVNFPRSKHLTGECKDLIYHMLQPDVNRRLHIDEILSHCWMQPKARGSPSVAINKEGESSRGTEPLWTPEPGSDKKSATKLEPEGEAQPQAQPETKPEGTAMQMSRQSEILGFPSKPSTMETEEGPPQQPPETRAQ
ALK tyrosine kinase receptor, sequence (Q9UM73 whole entry): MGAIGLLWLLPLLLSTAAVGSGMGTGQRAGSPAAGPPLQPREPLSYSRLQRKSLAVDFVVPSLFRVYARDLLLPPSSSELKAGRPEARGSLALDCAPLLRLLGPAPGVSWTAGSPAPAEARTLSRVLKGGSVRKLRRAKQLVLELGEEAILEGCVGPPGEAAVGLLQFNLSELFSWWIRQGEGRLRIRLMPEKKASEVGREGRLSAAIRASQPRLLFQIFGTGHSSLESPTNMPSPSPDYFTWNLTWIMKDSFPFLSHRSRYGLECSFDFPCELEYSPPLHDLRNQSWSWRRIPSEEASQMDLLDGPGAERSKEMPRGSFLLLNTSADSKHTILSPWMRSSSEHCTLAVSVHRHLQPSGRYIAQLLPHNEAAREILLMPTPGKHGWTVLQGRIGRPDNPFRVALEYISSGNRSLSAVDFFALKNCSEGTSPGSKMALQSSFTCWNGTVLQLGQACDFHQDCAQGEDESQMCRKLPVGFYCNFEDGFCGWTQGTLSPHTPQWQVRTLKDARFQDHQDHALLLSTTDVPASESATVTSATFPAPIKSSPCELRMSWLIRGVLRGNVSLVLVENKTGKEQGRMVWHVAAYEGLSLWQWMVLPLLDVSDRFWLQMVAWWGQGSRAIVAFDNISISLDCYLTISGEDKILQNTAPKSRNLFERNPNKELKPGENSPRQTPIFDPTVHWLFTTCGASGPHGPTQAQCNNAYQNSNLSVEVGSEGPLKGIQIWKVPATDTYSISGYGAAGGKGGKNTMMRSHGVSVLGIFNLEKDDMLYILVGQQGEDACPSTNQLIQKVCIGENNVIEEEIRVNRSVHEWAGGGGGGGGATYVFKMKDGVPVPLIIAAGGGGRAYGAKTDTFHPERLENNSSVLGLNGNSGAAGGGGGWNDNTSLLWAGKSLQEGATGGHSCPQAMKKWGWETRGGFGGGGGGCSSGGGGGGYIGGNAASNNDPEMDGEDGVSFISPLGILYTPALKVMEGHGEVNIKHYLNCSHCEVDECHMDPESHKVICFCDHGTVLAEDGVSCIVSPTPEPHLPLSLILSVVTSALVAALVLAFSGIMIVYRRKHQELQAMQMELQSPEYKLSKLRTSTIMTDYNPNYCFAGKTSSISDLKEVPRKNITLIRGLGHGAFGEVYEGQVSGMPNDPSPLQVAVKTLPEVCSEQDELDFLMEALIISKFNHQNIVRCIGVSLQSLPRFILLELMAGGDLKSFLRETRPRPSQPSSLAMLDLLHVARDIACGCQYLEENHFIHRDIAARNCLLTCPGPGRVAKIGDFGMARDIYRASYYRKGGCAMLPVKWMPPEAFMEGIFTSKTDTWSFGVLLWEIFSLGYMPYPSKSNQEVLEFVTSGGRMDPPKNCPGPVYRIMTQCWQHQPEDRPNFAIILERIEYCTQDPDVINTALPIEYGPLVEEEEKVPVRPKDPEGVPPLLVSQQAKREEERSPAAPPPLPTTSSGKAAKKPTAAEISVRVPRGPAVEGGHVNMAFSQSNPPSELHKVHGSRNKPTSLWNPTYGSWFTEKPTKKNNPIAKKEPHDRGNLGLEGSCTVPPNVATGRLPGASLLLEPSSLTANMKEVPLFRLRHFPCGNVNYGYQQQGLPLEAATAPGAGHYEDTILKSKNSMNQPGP
RAC-alpha serine/threonine-protein kinase, sequence (P31749 whole entry, the tested form may be a part): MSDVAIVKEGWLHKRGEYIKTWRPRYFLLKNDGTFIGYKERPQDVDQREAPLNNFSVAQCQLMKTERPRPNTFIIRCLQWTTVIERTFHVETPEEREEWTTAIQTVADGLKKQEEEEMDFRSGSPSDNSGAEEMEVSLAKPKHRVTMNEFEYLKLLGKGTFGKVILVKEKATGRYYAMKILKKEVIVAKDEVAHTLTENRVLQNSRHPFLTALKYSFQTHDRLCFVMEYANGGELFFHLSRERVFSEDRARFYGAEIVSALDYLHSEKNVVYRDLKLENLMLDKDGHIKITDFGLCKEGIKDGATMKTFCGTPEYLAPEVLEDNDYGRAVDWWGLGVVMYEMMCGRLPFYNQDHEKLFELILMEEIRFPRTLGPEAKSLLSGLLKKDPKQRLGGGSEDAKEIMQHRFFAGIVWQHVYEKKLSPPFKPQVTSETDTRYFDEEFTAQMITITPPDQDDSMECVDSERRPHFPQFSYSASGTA
Cytochrome P450 2C9, sequence (P11712 whole entry): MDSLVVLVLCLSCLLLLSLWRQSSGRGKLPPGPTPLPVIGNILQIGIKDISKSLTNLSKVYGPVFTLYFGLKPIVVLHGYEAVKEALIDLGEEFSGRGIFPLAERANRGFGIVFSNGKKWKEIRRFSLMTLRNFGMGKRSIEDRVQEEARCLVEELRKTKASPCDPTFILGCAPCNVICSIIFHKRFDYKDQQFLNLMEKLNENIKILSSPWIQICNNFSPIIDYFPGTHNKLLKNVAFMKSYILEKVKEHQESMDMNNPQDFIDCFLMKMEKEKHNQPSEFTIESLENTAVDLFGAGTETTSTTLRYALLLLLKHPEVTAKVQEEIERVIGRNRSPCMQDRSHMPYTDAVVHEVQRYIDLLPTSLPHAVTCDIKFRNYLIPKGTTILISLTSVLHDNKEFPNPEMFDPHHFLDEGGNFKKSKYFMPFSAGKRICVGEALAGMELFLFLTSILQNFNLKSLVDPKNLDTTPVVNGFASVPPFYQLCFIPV
Aurora kinase A, sequence (O14965 whole entry): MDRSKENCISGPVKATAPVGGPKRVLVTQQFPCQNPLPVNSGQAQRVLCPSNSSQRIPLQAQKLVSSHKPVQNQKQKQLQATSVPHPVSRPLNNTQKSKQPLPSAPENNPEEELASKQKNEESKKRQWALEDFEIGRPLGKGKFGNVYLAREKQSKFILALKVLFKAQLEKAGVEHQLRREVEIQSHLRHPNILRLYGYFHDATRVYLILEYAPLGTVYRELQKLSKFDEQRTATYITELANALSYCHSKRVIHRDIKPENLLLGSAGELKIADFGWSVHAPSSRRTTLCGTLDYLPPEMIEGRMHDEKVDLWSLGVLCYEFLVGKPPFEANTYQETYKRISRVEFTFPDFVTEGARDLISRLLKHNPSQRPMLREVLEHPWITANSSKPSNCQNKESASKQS

For `Cl.Cn1nccc1-c1ccc(C(=O)N[C@@H]2CNCC[C@H]2c2ccc(F)c(F)c2)c(F)c1`, the IC50 [1] was 0.004 µM, the IC50 [2] was 2.5 µM and the inhibition [3] was “Active”. For the same compound, the IC50 [4] was 0.629 µM, the IC50 [5] was over 10 µM and the IC50 [6] was over 10 µM. It also gave an IC50 [7] of over 10 µM, an IC50 [8] of over 10 µM and an IC50 [9] of over 10 µM. For the same compound, the IC50 [10] was 9.26 µM, the IC50 [11] was 3.6 µM and the IC50 [12] was 20.3 µM. The IC50 [13] was 7.76 µM, the IC50 [14] was 9.9 µM and the IC50 [15] was 16.4 µM. For the same compound, the IC50 [16] was 0.61 µM, the IC50 [17] was 3.52 µM and the IC50 [18] was 5.4 µM. It also gave an IC50 [19] of over 100 µM, a half-life at 50 µM [20] of 6.73 h and a microsomal CLint at 50 µM [21] of 13.6 µL/min/mg. For the same compound, the microsomal CLint at 50 µM [22] was 4.1 µL/min/mg, the microsomal CLint at 50 µM [23] was 20 µL/min/mg and the microsomal CLint at 50 µM [24] was 3.4 µL/min/mg. It also gave a Tmax [25] of 1.67 h, a Tmax [26] of 6.6 min and a half-life [27] of 6.24 h. For the same compound, the half-life [28] was 16.7 h, the Cmax [29] was 171 ng/mL and the AUC(0-inf) [30] was 533 ng·h/mL. For the same compound, the Drug metabolism [31] was “Metabolite_Detected”, the Drug metabolism [32] was “Metabolite_Detected” and the Drug metabolism [33] was “Metabolite_Detected”. For the same compound, the Drug metabolism [34] was “Metabolite_Detected”, the Drug metabolism [35] was “Metabolite_Detected” and the Activity [36] was “Toxic”. For the same compound, the Activity [37] was “Non-Toxic”, the Activity [38] was “Non-Toxic” and the Activity [39] was “Non-Toxic”. For the same compound, the TGI [40] was 55.7% and the Activity [41] was “Non-Toxic”.
